Measurements: patent US8334261B2, “Osteopenia animal model” (Oriental Yeast Co., Ltd., priority 2006, dated 2012)

Assays:
[1] = test system: 7-week-old female C57BL/6N mice; experiment: GST-RANKL administration test (57 and 426 nmol); format: in vivo, mouse
Protocol: GST-RANKL was intraperitoneally administered 3 times to groups of 7-week-old female C57BL/6N mice (10 individuals each) at doses of 57 nmol (low dose) and 426 nmol (high dose) every 24 hours. Exsanguination was performed 1.5 hours after the 3rd administration. A group to which PBS was administered in the same manner as above was used as a control group for comparison.
The exsanguinated blood was subjected to measurement of serum bone resorption parameters (calcium, CTx, TRAP-5b) and serum osteogenesis parameters (osteocalcin and alkaline phosphatase (ALP)). Calcium was measured by the OCPC method (WAKO, 272-21801). CTx (Nordic Bioscience Diagnostics), TRAP-5b (IDS Ltd, SB-TR103), and osteocalcin (Biomedical Technologies Inc.) were measured by ELISA. ALP was measured by the Bessey-Lowry method (WAKO, 274-04401).
The following organs were collected from each exsanguinated mouse: the femur, the tibia, the cerebrum, the lungs, the heart, the liver, the thymus, the spleen, the kidneys, and the skin. Naturally occurring lesions were observed by HE staining of the cerebrum, the lungs, the heart, the liver, the thymus, the spleen, the kidneys, and the skin.
Regarding the femur, the cancellous bone was subjected to bone density measurement with the use of pQCT at points 0.6 mm, 0.8 mm, and 1.0 mm from the distal growth plate on the proximal side at the distal end of the femur. Regarding the tibia, tibia sections were prepared for bone morphology measurement. Measurement values were compared with those for a control group by the Dunnett method for testing.

[2] = test system: 7-week-old female Fischer rats; experiment: Examination with Fischer rats; format: in vivo, rat
Protocol: GST-RANKL was intraperitoneally administered 3 times to 7-week-old female Fischer rats at 1 mg/kg every 24 hours. The serum and femur were collected from each mouse 1.5 hours after the 3rd administration, followed by comparison with the PBS administration group. The serum of each mouse was subjected to measurement (with the use of an SB-TR102 kit, IDS Ltd.) of the Ca and TRAP-5b concentrations serving as bone resorption markers and the ALP concentration serving as an osteogenesis marker. Each femur was subjected to bone density measurement with pQCT and image analysis with micro CT.

[3] = test system: 7-week-old female C57BL/6 mice; experiment: Administration of GST-RANKL for 7 consecutive days; format: in vivo, mouse
Protocol: GST-RANKL was intraperitoneally administered to groups of 7-week-old female C57BL/6 mice at 2 mg/kg/day for 7 consecutive days. The serum and femur were collected from each mouse 1.5 hours after the 7th administration. The serum and femur obtained from each mouse were subjected to measurement of serum markers and bone density measurement with pQCT, respectively.

[4] = test system: 7-week-old female C57BL/6N mice; experiment: Tibial bone morphology measurement after GST-RANKL 2 mg/kg; format: in vivo, mouse; conditions: 2 mg/kg i.p. 3 times
Protocol: GST-RANKL was intraperitoneally administered 3 times to groups of 7-week-old female C57BL/6N mice at 2 mg/kg every 24 hours, followed by dissection. The tibia of each mouse was subjected to toluidine blue staining and morphology measurement. A solvent (PBS) was administered to the control group in the same manner as above. The GST-RANKL intraperitoneal administration group was subjected to tibial bone morphology measurement. The unit bone mass (BV/TV), the trabecular width (Tb.Th), and the trabecular number (Tb.N) decreased by approximately 30% (p<0.03), approximately 10% (P<0.03), and approximately 20% (p<0.05), respectively, compared with those for the control group (FIGS. 29 to 31). In addition, the osteoid thickness (O.Th), the eroded surface area (ES/BS), the osteoclast number (N.Oc/B.Pm), and the osteoclast surface area (Oc.S/BS) increased, respectively, to approximately 1.2-fold (p<0.04), approximately 1.8-fold (p<0.001), approximately 1.9-fold (p<0.001), and approximately 1.8-fold (p<0.001) as high as those for the control group (FIGS. 32 to 35). In addition, the sections obtained in this Example were subjected to TRAP staining. […] That is, the osteopenia mechanism induced by GST-RANKL administration involves promotion of bone resorption, but not reduction in osteogenesis. However, the aforementioned coupling phenomenon causes promotion of osteogenesis depending on the GST-RANKL dose, the number of doses, and the period of time elapsed after administration, which might results in an increase in the osteoblast surface area.

[5] = test system: GST-RANKL-administered 7-week-old female C57BL/6N mice; experiment: Evaluation of an osteoporosis therapeutic agent (risedronate) with GST-RANKL-administered mice; format: in vivo, mouse
Protocol: GST-RANKL (426 nmol) was intraperitoneally administered 3 times to groups of 7-week-old female C57BL/6N mice (5 to 6 individuals each) every 24 hours. An osteoporosis therapeutic agent (risedronate) was subcutaneously administered at 0.01 mg/kg every 24 hours from 3 days before GST-RANKL administration. Administration of the agent was continued to the end of the experimentation every 24 hours. The serum, femur, and tibia were collected from each mouse 1.5 hours after the 3rd administration of GST-RANKL. Bone resorption parameters (calcium, CTx, and TRAP-5b) and osteogenesis parameters (osteocalcin and ALP) in the serum were measured. The femur bone density was determined with the use of pQCT and micro CT. Measurement values were compared with those for a control group by the Dunnett method for testing.

[6] = high dose 426 nmol i.p. 3 times
[7] = GST-RANKL 426 nmol i.p. 3 times

Substance: GST-RANKL: fused protein of Glutathione S-transferase with human RANKL residues 140-317, expressed in Escherichia coli, 47.0 kDa
- abnormal findings and lesions in organs (HE staining) ([1]; 57 and 426 nmol, cerebrum, lungs, heart, liver, thymus, spleen, kidneys, skin): not observed
- femur bone morphology with micro CT ([1]; high dose 426 nmol): significant bone decreases
- serum ALP concentration ([1]; high dose 426 nmol): did not vary
- serum osteocalcin concentration ([1]; high dose 426 nmol): did not vary
- tibial osteoblast surface area ([1]; high dose 426 nmol): significant osteoblast surface area increase
- tibial osteoclast number ([1]; high dose 426 nmol): increased
- tibial trabecular number decrease ([1]; high dose 426 nmol): approximately 50%
- tibial unit bone mass decrease ([1]; high dose 426 nmol): approximately 50%
- serum CTx concentration, fold as high as control [1, 6]: approximately 1.5 fold
- serum TRAP-5b concentration, fold as high as control [1, 6]: approximately 1.5 fold
- serum Ca concentration, fold as high as control ([1]; high dose 426 nmol i.p. 3 times every 24 hours, 1.5 hours after 3rd administration): approximately 1.4 fold
- femur bone density decrease (pQCT) ([1]; high dose 426 nmol, 0.6 mm from distal growth plate): 10%
- femur bone density decrease (pQCT) ([1]; high dose 426 nmol, 0.8 mm): 23%
- femur bone density decrease (pQCT) ([1]; high dose 426 nmol, 1.0 mm): 20%
- femur bone density (pQCT) vs control ([1]; low dose 57 nmol): no significant difference
- serum ALP concentration ([1]; low dose 57 nmol): did not vary
- serum osteocalcin concentration ([1]; low dose 57 nmol): did not vary
- tibial trabecular number ([1]; low dose 57 nmol): no decrease was observed
- tibial unit bone mass ([1]; low dose 57 nmol): no decrease was observed
- serum ALP concentration vs control ([2]; 1 mg/kg i.p. 3 times): no changes
- serum Ca concentration vs control ([2]; 1 mg/kg i.p. 3 times): no changes
- serum TRAP-5b concentration vs control ([2]; 1 mg/kg i.p. 3 times): no changes
- femur bone density decrease ([2]; 3 mm from the distal growth plate): approximately 20%
- femur bone density decrease vs control ([3]; 2 mg/kg/day 7 days, 0.6 mm): approximately 21%
- femur bone density decrease vs control ([3]; 2 mg/kg/day 7 days, 0.8 mm): approximately 32%
- femur bone density decrease vs control ([3]; 2 mg/kg/day 7 days, 1.0 mm): approximately 47%
- serum TRAP-5b concentration increase ([3]; 2 mg/kg/day 7 days, no significant difference): approximately 30%
- serum ALP concentration increase ([3]; 2 mg/kg/day 7 days, p<0.02): approximately 30%
- serum Ca concentration increase ([3]; 2 mg/kg/day i.p. 7 consecutive days, no significant difference): approximately 20%
- osteoblast surface area [4]: no increase
- eroded surface area (ES/BS), fold as high as control ([4]; tibia): approximately 1.8 fold
- osteoclast number (N.Oc/B.Pm), fold as high as control ([4]; tibia): approximately 1.9 fold
- osteoclast surface area (Oc.S/BS), fold as high as control ([4]; tibia): approximately 1.8 fold
- osteoid thickness (O.Th), fold as high as control ([4]; tibia): approximately 1.2 fold
- trabecular number (Tb.N) decrease vs control ([4]; tibia): approximately 20%
- trabecular width (Tb.Th) decrease vs control ([4]; tibia): approximately 10%
- unit bone mass (BV/TV) decrease vs control ([4]; tibia): approximately 30%
- osteoclast number by TRAP staining ([4]; tibia sections): greater than that for the control group
- serum alkaline phosphatase concentration vs control ([5]; GST-RANKL 426 nmol): did not change
- serum osteocalcin concentration vs control ([5]; GST-RANKL 426 nmol): did not change
- serum CTx concentration, fold as high as control [5, 7]: approximately 1.4 fold
- serum TRAP-5b concentration, fold as high as control [5, 7]: approximately 1.5 fold
- femur bone density decrease vs control ([5]; GST-RANKL 426 nmol, at 0.6 mm, 0.8 mm and 1.0 mm): approximately 20%
